Source: BindingDB's records for doi:10.1016/j.bmcl.2011.04.103 (University of Strasburg, 2011)

Assay: Inhibition of N-terminal SHH activated pathway in mouse C3H10T1/2 cells assessed as SAG-induced cell differentiation by alkaline phosphatase assay

SMILES | IC50
CC1=C2C[C@H]3[C@@H](CC=C4C[C@@H](O)CC[C@@]43C)[C@@H]2CC[C@]12O[C@@H]1C[C@H](C)CN[C@H]1[C@H]2C | 600 nM
C[C@H]([C@@H]1CCCCN1)[C@H]1CC[C@H]2[C@@H]3CC=C4C[C@@H](O)CC[C@]4(C)[C@H]3CC[C@]12C | 3200 nM
COc1cccc(CN(C(=O)CC(C)(C)C)[C@H]2C[C@@H](C(=O)N3CCNCC3)N(Cc3ccc4c(c3)OCO4)C2)c1 [N-((3S,5S)-1-(benzo[d][1,3]dioxol-5-ylmethyl)-5-(piperazine-1-carbonyl)pyrrolidin-3-yl)-N-(3-methoxybenzyl)-3,3-dimethylbutanamide] | 300 nM
